Results taken from patent publication US11319289B2, “5-hydroxy pyridine-based compound for use as P2X1 and P2X3 receptor antagonist and pharmaceutical composition comprising same” (GWANGJU INSTITUTE OF SCIENCE AND TECHNOLOGY, priority 2017, dated 2022).
Values joined by “and” are separate entries in the source; they are usually repeats but may differ in a detail not shown here. Equal values may be shown once.

Experiments:
Format in all cases: cell-based
[1] = biological target: T1, mouse P2X1 receptor (mP2X1) (Mus musculus, UniProt P51576); experiment: Two-electrode voltage clamp assay, recombinant mP2X1 receptor in Xenopus oocytes; conditions: for mP2X1 % inhibitory effect at 10 μM / inhibition at 10 µM: 10 μM compound, 2 μM ATP, mean±SEM n≥3 (footnote c); for inhibition at 10 µM: read-out: mP2X1 % inhibitory effect at 10 μM
T1 construct: expressed in transfected cells; host or cells: Xenopus oocytes (cRNA microinjection)
T1 sequence (P51576 1-399): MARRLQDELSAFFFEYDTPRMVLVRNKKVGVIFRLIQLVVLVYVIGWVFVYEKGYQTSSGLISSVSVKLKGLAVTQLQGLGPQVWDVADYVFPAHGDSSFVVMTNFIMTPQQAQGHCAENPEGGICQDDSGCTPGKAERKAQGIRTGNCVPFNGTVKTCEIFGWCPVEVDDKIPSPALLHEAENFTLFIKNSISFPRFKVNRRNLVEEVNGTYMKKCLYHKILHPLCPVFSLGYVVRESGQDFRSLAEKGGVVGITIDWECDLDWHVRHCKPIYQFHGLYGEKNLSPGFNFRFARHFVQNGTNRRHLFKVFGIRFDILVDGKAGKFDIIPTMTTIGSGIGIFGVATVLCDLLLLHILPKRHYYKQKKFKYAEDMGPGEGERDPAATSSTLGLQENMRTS
Procedure: (§1) 1-1. Two-Electrode Voltage Clamp Assay for Recombinant mP2X1 and hP2X3 Receptors
(§2) Xenopus oocytes were isolated and incubated with 270 U/mg of collagenase at 23 to 24° C. for 1.5 hours. Defolliculated oocytes were kept in Barth's solution at 18° C. After 1 day, the defolliculated oocytes were each microinjected cytosolically with mP2X1 and human P2X3 receptor cRNA ([…], 1 μg/mL), incubated for 24 hours at 18° C. in Barth's solution. The cRNA-injected oocytes were kept for 12 days at 4° C. ATP-activated membrane currents (Vh=−70 mV) were recorded from the cRNA-injected oocytes using the two-electrode voltage clamp technique (Axoclamp 2B amplifier). Voltage recording ([…] tip resistance) and current-recording microelectrodes (5 MΩ tip resistance) were filled with 3.0 M KCl. Oocytes were placed in an electrophysiological chamber continuously superfused with Ringer's solution (5 mL/min, at 18° C.) containing 110 mM NaCl, 2.5 mM KCl, 5 mM HEPES and 1.8 mM BaCl2, with pH adjusted to 7.5. To induce an evoked current, 2 μM ATP was superfused for 60 to 120 seconds and then washed for 20 min. For data analysis, the ATP-evoked current was normalized at pH 7.5. The compounds were introduced to the fixed oocytes 20 minutes prior to ATP exposure in the electrophysiological chamber. IC50 values (the concentration of the compound required to inhibit the ATP response by 50%) were determined by Hill plots designed using the Chemical Formula: log(I/Imax−1), where I is the current evoked by ATP in the presence of an antagonist. Data are presented as mean±SEM (n≥3) from different batches of oocytes.
(§3) In order to investigate the structure-activity relationship (SAR) of the compounds synthesized in the present invention, the antagonistic activity was evaluated by a two-electrode voltage clamp (TEVC) assay in Xenopus oocytes expressing the recombinant mP2X1 or hP2X3, respectively. The hP2X7R antagonistic activity was assessed using an ethidium ion accumulation assay in human HEK293 cells stably expressing the recombinant human P2X7R.

[2] = biological target: T2, human P2X3 receptor (hP2X3) (Homo sapiens, UniProt P56373); experiment: Two-electrode voltage clamp assay, recombinant hP2X3 receptor in Xenopus oocytes; conditions: for inhibition at 1 µM: 1 μM compound, 2 μM ATP, mean±SEM n≥3 (footnote b), read-out: hP2X3 % inhibitory effect at 1 μM; for inhibition at 1 µM / IC50: Xenopus oocytes; for IC50: 2 μM ATP-evoked current, mean±SEM n≥3 (footnote d)
T2 construct: expressed in transfected cells; host or cells: Xenopus oocytes (cRNA microinjection)
T2 sequence (P56373 1-397): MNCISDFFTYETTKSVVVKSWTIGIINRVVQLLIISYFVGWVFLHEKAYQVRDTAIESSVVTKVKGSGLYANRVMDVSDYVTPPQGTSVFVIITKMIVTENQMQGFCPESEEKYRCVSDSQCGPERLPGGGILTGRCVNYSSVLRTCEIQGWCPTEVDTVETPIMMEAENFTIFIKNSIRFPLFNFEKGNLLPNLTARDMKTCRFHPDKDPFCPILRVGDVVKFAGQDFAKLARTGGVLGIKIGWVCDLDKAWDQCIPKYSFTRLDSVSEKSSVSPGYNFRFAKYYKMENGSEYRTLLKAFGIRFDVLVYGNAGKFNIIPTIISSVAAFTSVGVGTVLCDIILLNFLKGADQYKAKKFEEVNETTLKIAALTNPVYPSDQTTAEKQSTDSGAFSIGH
Procedure: as §1, §2, §3

[3] = biological target: T3, human P2X7 receptor (hP2X7) (Homo sapiens, UniProt Q99572); experiment: Ethidium bromide accumulation assay in hP2X7-expressing HEK293 cells; conditions: 10 μM compound with BzATP
T3 construct: expressed in transfected cells
T3 sequence (Q99572 1-595): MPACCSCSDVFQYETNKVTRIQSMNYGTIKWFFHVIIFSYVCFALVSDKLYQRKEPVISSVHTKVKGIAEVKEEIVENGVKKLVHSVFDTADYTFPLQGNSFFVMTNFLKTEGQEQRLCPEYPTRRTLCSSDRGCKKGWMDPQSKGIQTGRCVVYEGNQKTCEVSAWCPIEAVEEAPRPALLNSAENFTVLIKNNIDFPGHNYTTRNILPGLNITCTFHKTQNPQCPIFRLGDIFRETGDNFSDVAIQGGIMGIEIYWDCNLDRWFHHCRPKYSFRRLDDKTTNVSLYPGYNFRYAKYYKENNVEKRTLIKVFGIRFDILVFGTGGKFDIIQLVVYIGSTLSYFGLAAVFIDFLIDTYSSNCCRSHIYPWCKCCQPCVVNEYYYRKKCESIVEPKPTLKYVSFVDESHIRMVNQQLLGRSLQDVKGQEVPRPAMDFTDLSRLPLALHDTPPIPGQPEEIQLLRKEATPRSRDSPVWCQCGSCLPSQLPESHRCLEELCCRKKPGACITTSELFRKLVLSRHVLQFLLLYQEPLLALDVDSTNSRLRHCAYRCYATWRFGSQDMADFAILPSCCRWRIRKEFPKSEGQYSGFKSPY
Procedure: 1-2. Ethidium Bromide Accumulation Assay in hP2X-Expressing HEK293 Cells
HEK293 cells that are stably transfected with the human P2X7 receptor (P2X7R) were kept under a humidified atmosphere of 5% CO2 at 37° C. in DMEM supplemented with 10% (v/v) FBS, 2 mM L-glutamine and antibiotics (50 U/mL penicillin and 50 μg/ml streptomycin). BzATP-induced pore formation was measured using a fluorescence plate reader by measuring cellular absorption of ethidium in the hP2X7-expressing HEK293 cells. The hP2X7-expressing HEK293 cells were washed once with an appropriate assay buffer, and the buffer was also removed before subsequent analysis. All studies were performed at room temperature and the final assay volume was 100 μL. The cells were resuspended at 2.5×10^6 cells/mL in assay buffers consisting of 10 mM HEPES, 5 mM N-methyl-D-glucamine, 5.6 mM KCl, 10 mM D-glucose and 0.5 mM CaCl2 (pH 7.4) and supplemented with 280 mM sucrose or 140 mM NaCl.
In order to determine the antagonistic activity of the 5-hydroxyl-pyridine derivatives of the present invention and the reference compound (AZD9056), these compounds were added to the cells at a concentration of 10 μM with BzATP without pre-incubation. The cells were incubated for 2 hours under a humidified atmosphere of 5% CO2 at 37° C., and the absorption of ethidium dye was observed by measuring fluorescence with a Bio-Tek instrument FL600 fluorescent plate reader (excitation wavelength of 530 nm and emission wavelength of 590 nm). The results are expressed as a percentage relative to the maximum cumulative amount of ethidium bromide when stimulated with BzATP alone.
as §3

| Structure (SMILES) | mP2X1 % inhibitory effect at 10 μM [1] | inhibition at 1 µM [2] | hP2X7 % inhibition of ethidium bromide accumulation [3] | inhibition at 10 µM [1] | IC50 [2] | IC50 ([1]; 2 μM ATP-evoked current, mean±SEM n≥3 (footnote d), read-out: mP2X1 IC50) | selectivity for hP2X3R to mP2X1R ([2]; hP2X3R versus mP2X1R) |
| --- | --- | --- | --- | --- | --- | --- | --- |
| CCCc1nc(Cc2cccc(Oc3ccccc3)c2)c(C)c(CN)c1O [Compound 41, 4-(Aminomethyl)-5-methyl-6-(3-phenoxybenzyl)-2-propylpyridin-3-ol] | inactive^c | < 50% | inactive | – | – | – | – |
| CCCc1nc(Cc2cccc(Oc3ccccc3)c2)c(C)c(/C=C/C(=O)O)c1O [Compound 35, (E)-3-(3-Hydroxy-5-methyl-6-(3-phenoxybenzyl)-2-propylpyridin-4-yl)acrylic acid] | Inactive^c | < 50% | inactive | – | – | – | – |
| CCCc1nc(Cc2cccc(Oc3ccccc3)c2)c(C)c(C#N)c1O [Compound 38, 3-Hydroxy-5-methyl-6-(3-phenoxybenzyl)-2-propylisonicotinonitrile] | inactive^c | < 50% | inactive | – | – | – | – |
| CCCc1nc(Cc2cccc(Oc3ccccc3)c2)c(C)c(CNS(C)(=O)=O)c1O [Compound 43, N-((3-Hydroxy-5-methyl-6-(3-phenoxybenzyl)-2-propylpyridin-4-yl)methyl)methanesulfonamide] | – | < 50% | inactive | 43.1 ± 12.9% | – | – | – |
| COc1ccc(CCc2nc(C)c(O)c3c(=O)[nH][nH]c(=O)c23)cc1 [Compound 19, 8-Hydroxy-5-(4-methoxyphenethyl)-7-methyl-2,3-dihydropyrido[3,4-d]pyridazine-1,4-dione] | Inactive^c | 16.3% | inactive | – | – | – | – |
| COc1ccc(CCc2cc(S(C)(=O)=O)c(O)c(C)n2)cc1 [Compound 20, 6-(4-Methoxyphenethyl)-2-methyl-4-(methylsulfonyl)pyridin-3-ol] | inactive^c | 20.4% | inactive | – | – | – | – |
| COc1ccc(CCc2nc(C)c(O)c(-c3nnn[nH]3)c2C(=O)O)cc1 [Compound 17, 5-Hydroxy-2-(4-methoxyphenethyl)-6-methyl-4-(1H-tetrazol-5-yl)nicotinic acid] | Inactive^c | 27.3 ± 1.8% | inactive | – | – | – | – |
| COc1ccc(CCc2nc(C)c(O)c3c2C(=O)OC3=O)cc1 [Compound 18, 7-Hydroxy-4-(4-methoxyphenethyl)-6-methylfuro[3,4-c]pyridine-1,3-dione] | – | 27.8% | inactive | 25.3% | – | – | – |
| CCCc1nc(Cc2cccc(Oc3ccccc3)c2)c(C(=O)O)c(C(=O)O)c1O [Compound 27, 5-Hydroxy-2-(3-phenoxybenzyl)-6-propylpyridine-3,4-dicarboxylic acid] | – | – | Inactive | 27.5 ± 4.5% | 301 nM | – | – |

Continued, values first:

| mP2X1 % inhibitory effect at 10 μM [1] | inhibition at 1 µM [2] | hP2X7 % inhibition of ethidium bromide accumulation [3] | inhibition at 10 µM [1] | IC50 [2] | IC50 ([1]; 2 μM ATP-evoked current, mean±SEM n≥3 (footnote d), read-out: mP2X1 IC50) | selectivity for hP2X3R to mP2X1R ([2]; hP2X3R versus mP2X1R) | Structure (SMILES) |
| --- | --- | --- | --- | --- | --- | --- | --- |
| – | – | inactive | 48.1 ± 8.8% | 550 ± 93 nM | – | – | CCc1nc(CCc2ccc(OC)cc2)c(C(=O)O)c(C(=O)O)c1O [Compound 13c, 6-Ethyl-5-hydroxy-2-(4-methoxyphenethyl)pyridine-3,4-dicarboxylic acid] |
| – | – | inactive | 37.3 ± 8.2% | 466 nM | – | – | COc1ccc(CCc2nc(C(C)C)c(O)c(C(=O)O)c2C(=O)O)cc1 [Compound 13f, 5-Hydroxy-6-isopropyl-2-(4-methoxyphenethyl)pyridine-3,4-dicarboxylic acid] |
| – | 32% | inactive | 23.4 ± 0.8% | – | – | – | COc1ccc(CCc2nc(CC(C)C)c(O)c(C(=O)O)c2C(=O)O)cc1 [Compound 13g, 5-Hydroxy-6-isobutyl-2-(4-methoxyphenethyl)pyridine-3,4-dicarboxylic acid] |
| Inactive^c | – | inactive | – | 384 nM and 385 nM | – | – | COc1ccc(CCc2nc(C)c(O)c(C(=O)O)c2C)cc1 [Compound 22b, 3-Hydroxy-6-(4-methoxyphenethyl)-2,5-dimethylisonicotinic acid] |
| Inactive^c | – | Inactive | – | 721 ± 96 nM | – | – | COc1ccc(CCc2nc(CCS(C)(=O)=O)c(O)c(C(=O)O)c2C(=O)O)cc1 [Compound 13l, 5-Hydroxy-2-(4-methoxyphenethyl)-6-(2-(methylsulfonyl)ethyl)pyridine-3,4-dicarboxylic acid] |
| – | – | Inactive | – | 561 ± 99 nM | 236 ± 78 nM | non-selective | COc1ccc(CCc2ncc(O)c(C(=O)O)c2C(=O)O)cc1 [Compound 13a, 5-Hydroxy-2-(4-methoxyphenethyl)pyridine-3,4-dicarboxylic acid] |
